{
  "source": "patent US20160361380A1",
  "about": "“COMBINATION COMPOSITIONS FOR TREATING DISORDERS REQUIRING REMOVAL OR DESTRUCTION OF UNWANTED CELLULAR PROLIFERATIONS” (Nymox Corporation, priority 2015, published 2016)",
  "type_in_all_cases": "in vivo, human",
  "key": {"[1]": {"tested_on": "patients with BPH", "assay": "Cross-over study: BPH patients on PBS plus oral medication, then additional DRUG injection, IPSS (Example Three)", "conditions": "same patients after cross-over to DRUG vs PBS + oral medication", "protocol": "In another study, patients with BPH were given an intraprostatic injection of PBS pH 7.2 vehicle alone, under double-blind conditions by a urologist in an office setting under ultrasound guidance. Patients were followed for 1 to 3 years with regular physical examinations, laboratory tests, and evaluations of symptoms. Patients who received PBS vehicle alone injections and who subsequently received in addition conventional oral medications used to treat BPH such as alpha blockers were assessed before and after receiving an additional injection of DRUG in phosphate buffered saline pH 7.2 (“PBS”). Symptomatic evaluation was measured by the International Prostate Symptom Score (IPSS) which is a quantitative scale used to gauge prostatic symptomatic improvement or worsening. The difference from baseline IPSS was compared in patients who were given blinded PBS only plus conventional oral medications vs results in the same patients on oral medications after cross-over to DRUG."}, "[2]": {"tested_on": "patients with BPH who subsequently underwent surgical treatment", "assay": "BPH study: single injection, subsequent surgical treatment, Symptom Score (Example Four)", "text": "973 patients who had not previously ever undergone surgical procedures for their BPH (including all types of surgical procedures such as transurethral resection of the prostate, laser ablation, microwave, needle ablation, and other minimally invasive surgical treatments) received a double-blind single injection of DRUG or vehicle alone (placebo) and were followed clinically for 2-5 years. All (N=58) patients from the above drug and vehicle alone placebo groups who had not previously undergone surgical treatment for their BPH and who subsequently underwent surgical treatment for their BPH (N=58) were then evaluated for their responses to the surgical procedures."}, "[3]": {"tested_on": "patients with benign prostatic hyperplasia (BPH)", "assay": "Double-blind BPH study, single intraprostatic injection followed by conventional oral BPH medications, IPSS (Example One)", "conditions": "NTP peptide plus additional oral medication vs placebo plus additional oral medication", "text": "In a study of 97 patients who had or had not previously ever taken conventional approved oral medications for their benign prostatic hyperplasia (BPH), the patients received a double-blind single injection of a specific peptide described by the amino acid sequence Ile-Asp-Gln-Gln-Val-Leu-Ser-Arg-Ile-Lys-Leu-Glu-Ile-Lys-Arg-Cys-Leu (hereinafter “DRUG”) (n=61) or vehicle alone (placebo) (n=36) and were followed clinically for 2-5 years. Patients with BPH were given an intraprostatic injection of either a) DRUG in phosphate buffered saline pH 7.2 (“PBS”) or b) PBS alone, under double-blind conditions by a urologist in an office setting under ultrasound guidance. Patients were followed for 2 to 5 years with regular physical examinations, laboratory tests, and evaluations of symptoms. […]\nSymptomatic evaluation was measured by the International Prostate Symptom Score (IPSS) which is a quantitative scale used to gauge prostatic symptomatic improvement or worsening. The IPSS quantifies the following: 1) incomplete bladder emptying after urination; 2) frequent urination; 3) stopping and starting during urination; 4) urgent need to urinate; 5) weakness of urinary stream; 6) need to push or strain during urination; 7) need to urinate after going to sleep at night (nocturia). […]"}, "[4]": {"tested_on": "patients with BPH not previously on conventional oral medications", "assay": "BPH study in patients never before on oral BPH medications, injection then oral medications, Symptom Score (Example Two)", "protocol": "In a study of 30 patients who had not previously ever taken conventional approved oral medications for their BPH, the patients received a double-blind single injection of DRUG (n=21) or vehicle alone (placebo) (n=9) and were followed clinically for 2-5 years. Patients from both of the above drug and vehicle only placebo groups who had not previously received conventional oral medications and subsequently went on conventional oral medications were evaluated for their responses to the conventional oral BPH medications."}},
  "note": "Ends that are not written are not given here.",
  "data": [
    {"sequence": "IDQQVLSRIKLEIKRCL [DRUG]", "values": [
      {"measurement": "Mean IPSS Improvement, when compared to the control", "setting": "[1]", "result": "about 110%"},
      {"measurement": "Mean IPSS Improvement, when compared to the control", "setting": "[2]; NTP peptide prior to surgical treatment vs placebo prior to surgery", "result": "about 142%"},
      {"measurement": "mean improvement in Symptom Score after surgery", "setting": "[2]; single injection, subsequent surgical treatment for BPH, n=31", "result": 15.3, "unit": "points"},
      {"measurement": "Mean IPSS Improvement, when compared to the control", "setting": "[3]", "result": "about 40%"},
      {"measurement": "Mean IPSS Improvement, when compared to the control", "setting": "[4]; naive patients, NTP peptide then oral medication vs placebo then oral medication", "result": "about 221%"},
      {"measurement": "mean improvement in Symptom Score", "setting": "[4]; oral-medication-naive patients, single injection then conventional oral BPH medication, 2-5 years, n=21", "result": 7.48, "unit": "points"}
    ]}
  ]
}
